Measured values as given in patent US8293489B2, “Methods for detection of biological substances” (priority 2007, dated 2012).
Marks after values point to notes of the source that are not given here.

Columns and labels:
Type in all cases: in vivo, human
[1] = test system: TNFR 2; test: TNFR 2 in nasal mucus in patients with hyposmia treated with theophylline
Description: (§1) Tables 36-38 illustrate detection and measurement of TNFα, TNFR 1 and TNFR 2 in nasal mucus of patients with graded loss of smell following treatment with theophylline. […] Further, nasal mucus can be used as an index of disease, disease severity and efficacy of disease treatment. Without limiting the scope of the present invention, this approach is applicable to other substances in nasal mucus in relationship to other disease processes (e.g., cancer, stroke) and to follow-up of their treatment with any drug.
Table 35 illustrates detection and measurement of TNFα, and soluble TNF receptors 1 and 2, moieties in the nasal mucus. TNFα, and soluble TNF receptors 1 and 2 increase in systems undergoing excessive apoptosis.
With a dose dependent increase of theophylline treatment levels of TNFR 2 in nasal mucus decreased consistent with a dose dependent increase in smell function. Levels of TNFR 2 in patients with Type I and Type II hyposmia decreased almost 50% on 600 mg theophylline consistent with their greatest return of smell function. At this highest level of theophylline levels of TNFR 2 were decreased in relationship to the decrease in smell function—TNFR 2, Type I>Type II>Type III; smell loss, Type I>Type II>Type III.

[2] = test system: patients with hyposmia; test: Smell function in patients with hyposmia treated with theophylline
Description: Theophylline may also restore smell function through other mechanisms.
Its continual measurement during treatment of these disorders helps in monitoring efficacy of therapy. The detection of NO in nasal mucus provides a non invasive method of diagnosing various diseases related to human physiology and pathology.

[3] = test system: nitric oxide (NO); test: NO in nasal mucus in patients with hyposmia before and after theophylline treatment; conditions: for NO in nasal mucus: Patients (12)
Description: Table 33 in the examples illustrates NO in nasal mucus in patients treated with theophylline in various doses before and after drug treatment. NO levels in nasal mucus changed following the treatment of patients with smell loss. […] Its continual measurement during treatment of the disorders helps in monitoring efficacy of therapy. The detection of NO in nasal mucus provides a non invasive method of diagnosing various diseases related to human physiology and pathology. The methods of the present invention include treatment of diseases by modulating the concentrations of NO by use of drugs or agents. The method of treatment is preferably by nasal administration.
Table 33 illustrates NO levels in nasal mucus in patients treated with Theophylline in various doses before and after drug treatment. NO levels in nasal mucus changed following the treatment of patients with smell loss. […] Its continual measurement during treatment of these disorders helps in monitoring efficacy of therapy. The detection of NO in nasal mucus provides a non invasive method of diagnosing various diseases related to human physiology and pathology.

[4] = test system: TNFα; test: TNFα in nasal mucus in patients with hyposmia treated with theophylline
Description: as §1, with “drug. […]” for “drug.”
These studies were extended to reveal levels of TNFα in nasal mucus of patients with graded loss of smell following treatment with theophylline (Table 36). Smell loss was graded such that loss was greatest in Type I hyposmia, less in Type II and still less in Type III (I>II>III). […] In Type I hyposmia TNFα decreased 40% after treatment with 400 mg theophylline and 57% after treatment 600 mg. In Type II hyposmia TNFα decreased 11% after treatment with 600 mg theophylline.

[5] = test system: TNFR 1; test: TNFR 1 in nasal mucus in patients with hyposmia treated with theophylline
Description: as §1, with “drug. […]” for “drug.”
With increased smell loss pre treatment TNFR 1 levels were increased in nasal mucus in patients with Type I hyposmia (whose smell loss was increased over that of patients with Type II hyposmia). After theophylline treatment, as a dose of drug increased, TNFR 1 levels decreased in Type I associated with increases in smell function. […] The greater was the smell loss, the higher was the level of TNFR 1.

[6] = test system: TRAIL; test: TRAIL in nasal mucus in patients with hyposmia before and after treatment with theophylline; conditions: for Nasal mucus TRAIL: patients with hyposmia (5)
Description: Table 16 illustrates detection and measurement of TRAIL in nasal mucus in patients with hyposmia before and after treatment with theophylline at various doses. […] Without limiting the scope of the present invention, other drugs are also considered with in the scope of the present invention for the treatment of various diseases. This is one of the example of the multiple examples of drugs to treat disease in which changes of various substances found in nasal mucus reflect biochemical normalization and functional improvement in the disease process.
Table 16 illustrates detection and measurement of TRAIL in nasal mucus in patients with hyposmia before and after treatment with theophylline at various doses.

[7] = HYPOSMIA TYPE I (7), theophylline 200 mg orally daily
[8] = HYPOSMIA TYPE I (7), theophylline 600 mg orally daily
[9] = HYPOSMIA TYPE II (10), theophylline 200 mg orally daily
[10] = HYPOSMIA TYPE II (10), theophylline 400 mg orally daily
[11] = HYPOSMIA TYPE II (10), theophylline 600 mg orally daily
[12] = HYPOSMIA TYPE III (2), theophylline 600 mg orally daily
[13] = patients with hyposmia, stepwise increase in theophylline treatment
[14] = patients with hyposmia, theophylline at various doses
[15] = patients with hyposmia, theophylline in graded doses

## Cn1c(=O)c2[nH]cnc2n(C)c1=O [theophylline]
[1]; [7]
  TNFR 2 in nasal mucus: 3,100 ± 1,184
[1]; [8]
  TNFR 2 in nasal mucus: 1,491 ± 1,102
[1]; [9]
  TNFR 2 in nasal mucus: 1,378 ± 480
[1]; [10]
  TNFR 2 in nasal mucus: 1,014 ± 272
[1]; [11]
  TNFR 2 in nasal mucus: 553 ± 158
[1]; [12]
  TNFR 2 in nasal mucus: 436 ± 443
[1]; dose dependent increase of theophylline treatment
  change in TNFR 2 levels in nasal mucus: decreased
[1]; patients with Type I and Type II hyposmia, 600 mg theophylline
  decrease in TNFR 2 levels in nasal mucus: ~50%
[1]; patients with hyposmia (18), Theophylline treatment (mg orally daily) 200
  TNFR 2 in nasal mucus: 1,952 ± 339 pg/ml
[1]; patients with hyposmia (18), Theophylline treatment (mg orally daily) 400
  TNFR 2 in nasal mucus: 949 ± 180^c pg/ml
[1]; patients with hyposmia (18), Theophylline treatment (mg orally daily) 600
  TNFR 2 in nasal mucus: 916 ± 344 pg/mL
[1]; [13]
  change in soluble TNF receptor 2 in nasal mucus: significant dose-response decrease
[2]; patients with hyposmia (loss of smell), general statement
  smell function: restores smell function in some patients with hyposmia
[2]; patients with hyposmia, 600 mg theophylline
  smell function: restored smell function to or toward normal
[2]; [14]
  smell function: returned smell function to normal in a dose-dependent manner
[2]; [15]
  smell function: graded increases in smell function
[3]; Theophylline 200 mg
  NO in nasal mucus: 0.25 ± 0.01 µg/mL
[3]; Theophylline 400 mg
  NO in nasal mucus: 0.40 ± 0.06 µg/mL
[3]; Theophylline 600 mg
  NO in nasal mucus: 0.59 ± 0.16 µg/mL
[3]; [15]
  change in NO in nasal mucus: increases in nasal mucus NO
[4]; HYPOSMIA TYPE I (8), theophylline 400 mg orally daily
  TNF∝ in nasal mucus: 15.6
[4]; HYPOSMIA TYPE I (8), theophylline 600 mg orally daily
  TNF∝ in nasal mucus: 11.2 ± 4.4
[4]; HYPOSMIA TYPE II (13), theophylline 200 mg orally daily
  TNF∝ in nasal mucus: 14.9 ± 2.5
[4]; HYPOSMIA TYPE II (13), theophylline 400 mg orally daily
  TNF∝ in nasal mucus: 11.5 ± 3.2
[4]; HYPOSMIA TYPE II (13), theophylline 600 mg orally daily
  TNF∝ in nasal mucus: 4.3 ± 0.8^a
[4]; HYPOSMIA TYPE III (3), theophylline 600 mg orally daily
  TNF∝ in nasal mucus: 1.2 ± 0.7^bc
[4]; Type I hyposmia, after treatment 600 mg theophylline
  decrease in TNFα in nasal mucus: 57%
[4]; Type I hyposmia, after treatment with 400 mg theophylline
  decrease in TNFα in nasal mucus: 40%
[4]; Type II hyposmia, after treatment with 600 mg theophylline
  decrease in TNFα in nasal mucus: 11%
[4]; each hyposmia patient group, with each increased dose of theophylline
  change in TNFα levels in nasal mucus: decreased in each patient group
[4]; patients with hyposmia (24), Theophylline treatment (mg/l) 200
  TNF∝ in nasal mucus: 20.0 ± 2.8 pg/mL
[4]; patients with hyposmia (24), Theophylline treatment (mg/l) 400
  TNF∝ in nasal mucus: 12.1 ± 2.1^d pg/ml
[4]; patients with hyposmia (24), Theophylline treatment (mg/l) 600
  TNF∝ in nasal mucus: 7.4 ± 1.8^a pg/ml
[4]; [13]
  change in TNFα in nasal mucus: significant dose-response decrease
[5]; [7]
  TNFR 1 in nasal mucus: 6,521 ± 1,304^c
[5]; HYPOSMIA TYPE I (7), theophylline 400 mg orally daily
  TNFR 1 in nasal mucus: 1,498
[5]; [8]
  TNFR 1 in nasal mucus: 1,832 ± 704^a
[5]; [9]
  TNFR 1 in nasal mucus: 1,462 ± 371
[5]; [10]
  TNFR 1 in nasal mucus: 1,087 ± 335
[5]; [11]
  TNFR 1 in nasal mucus: 862 ± 335
[5]; [12]
  TNFR 1 in nasal mucus: 585 ± 335
[5]; Type I hyposmia, as dose of drug increased
  change in TNFR 1 levels in nasal mucus: decreased
[5]; patients with hyposmia (19), Theophylline treatment 200
  TNFR 1 in nasal mucus: 3,148 ± 663 pg/ml
[5]; patients with hyposmia (19), Theophylline treatment 400
  TNFR 1 in nasal mucus: 1,146 ± 220^b pg/ml
[5]; patients with hyposmia (19), Theophylline treatment 600
  TNFR 1 in nasal mucus: 1,220 ± 286^ab pg/ml
[5]; [13]
  change in soluble TNF receptor 1 in nasal mucus: significant dose-response decrease
[6]; theophylline 200 mg
  Nasal mucus TRAIL: 855 µg/mL
[6]; theophylline 400 mg
  Nasal mucus TRAIL: 791 µg/mL
[6]; theophylline 600 mg
  Nasal mucus TRAIL: 247 µg/mL
[6]; [14]
  change in TRAIL in nasal mucus: dose-dependent decrease in TRAIL
